Assay results reported in PMC6321055, “Synthesis of Novel ent-Kaurane-Type Diterpenoid Derivatives Effective for Highly Aggressive Tumor Cells” (Molecules, 2018).

How the values were obtained:
[1] = test system: HepG2; experiment: MTT cytotoxicity assay, HepG2; conditions: for IC50: Homo sapiens, HepG2, 24 h, read-out: In vitro cytotoxic activity IC50, HepG2; for SI (selective index, IC50 of normal cells/IC50 of tumor cells): IC50 L6 / IC50 HepG2
Procedure: (§1) Cells were purchased from the Wuxi Innovatbio Medicine Technology Co. LTD (Wuxi, China) and were maintained at 37 °C under the atmosphere of 5% CO2. The cells of human non-small lung cancer (H292) and colon cancer cell line (SNU-1040) cells were cultured in RPMI-medium and others (rat myoblasts and HepG2) were cultured in dulbecco′s modified eagle medium (DMEM). 10% fetal bovine serum (Tianhang Biotechnology Co., Ltd., Zhejiang, China) and 1% antibiotics (100 U/mL penicillin and 100 mg/mL streptomycin) was supplemented. Cells are inoculated in 96-well plate and cultured for 24 h. After attached to the culture bottle wall cells were divided cells into three groups, (1) control group; (2) positive control group; (3) experiment group. […] After 24 h, 10% MTT was added and cells were culture for 3.5 h. Then the culture medium was discard and 150 µL DMSO was added. Eventually, after incubation for 10 min by shaking in the dark at room temperature, the absorbance was detected at 490 nm using a microplate reader, and the difference was analyzed by prism 7 software.

[2] = test system: NSCLC-H292; experiment: MTT cytotoxicity assay, NSCLC-H292; conditions: Homo sapiens, 24 h, read-out: In vitro cytotoxic activity IC50, NSCLC-H292
Procedure: as §1

[3] = in vitro; conditions: rat
Procedure: as §1

[4] = test system: SNU-1040; experiment: MTT cytotoxicity assay, SNU-1040; conditions: Homo sapiens, 24 h, read-out: In vitro cytotoxic activity IC50, SNU-1040
Procedure: as §1

[5] = MTT cytotoxicity assay, L6 normal cells; conditions: rat, L6 rat myotube cells (normal cells)
Procedure: as §1

| Structure (SMILES) | IC50 [1] [µM] | IC50 [2] [µM] | IC50 at 24 h [3] [µM] | IC50 [4] [µM] | melting point [°C] | SI (selective index, IC50 of normal cells/IC50 of tumor cells) [1] | IC50 at 24 h [5] [µM] |
| --- | --- | --- | --- | --- | --- | --- | --- |
| C=C1C[C@]2(C(=O)OCC)C[C@H]1C(=O)C[C@@H]2C1CC(C)(C)C=CC1=O (some centres unmarked) [Compound 13] | > 10 | 4.44 | > 10 | 1.41 | 112 to 114.6 |  |  |
| C=C1C[C@]2(C(=O)OCC)C[C@H]1C(=O)C[C@H]2C1CC(C)(C)C=CC1=O (some centres unmarked) [Compound 14] | > 10 | 2.95 | > 10 | 1.72 | 103.2 to 105.8 |  |  |
| C=C1C(O)[C@]2(C(=O)OCC)C[C@H]1C(=O)C[C@@H]2C1CC(C)(C)C=CC1=O (some centres unmarked) [Compound 15] | 1.81 | 1.99 | > 10 | 3.13 |  |  |  |
| C=C1C(=O)[C@]2(C(=O)OCC)C[C@H]1C(=O)C[C@@H]2C1CC(C)(C)C=CC1=O (some centres unmarked) [Compound 16] | 0.33 | 1.69 | > 10 | 2.44 |  | 161.06 |  |
| C=C1C(O)[C@]2(C(=O)OCC)C[C@H]1C(=O)C[C@H]2C1CC(C)(C)C=CC1=O (some centres unmarked) [Compound 17] | 1.58 | 0.99 | > 10 | 2.82 |  | 47.80 |  |
| C=C1C(=O)[C@]2(C(=O)OCC)C[C@H]1C(=O)C[C@H]2C1CC(C)(C)C=CC1=O (some centres unmarked) [Compound 18] | 0.56 | 1.35 | > 10 | 3.01 |  |  |  |
| C=C1C(=O)[C@]23C[C@H]1CC[C@H]2[C@@]12CO[C@]3(O)[C@@H](O)[C@@H]1C(C)(C)C=CC2=O [Eriocalyxin B, reference compound] | 2.12 | 7.11 |  | 1.54 |  |  | > 10 |
